According to ChEMBL document CHEMBL4507315 (2021):

Columns and labels:
[1] = system: Proto-oncogene tyrosine-protein kinase receptor Ret (Homo sapiens), P07949 [V804L]; settings: Compound concentration 100.0 nM
[2] = biological target: Mitogen-activated protein kinase kinase kinase 3 (Homo sapiens) (UniProt Q99759); settings: Compound concentration 100.0 nM
[3] = biological target: Kappa-type opioid receptor (Homo sapiens, UniProt P41145); settings: Compound concentration 10.0 uM
[4] = system: Receptor-type tyrosine-protein kinase FLT3 (Homo sapiens), P36888 [N841I]; settings: Compound concentration 100.0 nM
[5] = biological target: Serine/threonine-protein kinase SIK1 (Homo sapiens) (UniProt P57059); settings: Compound concentration 100.0 nM
[6] = biological target: Serine/threonine-protein kinase pim-2 (Homo sapiens) (UniProt Q9P1W9); settings: Compound concentration 100.0 nM
[7] = system: Tyrosine-protein kinase ABL1 (Homo sapiens), P00519 [F317I]; settings: Compound concentration 100.0 nM
[8] = system: Epidermal growth factor receptor (Homo sapiens), P00533 [L858R]; settings: Compound concentration 100.0 nM
[9] = biological target: STE20/SPS1-related proline-alanine-rich protein kinase (Homo sapiens) (UniProt Q9UEW8); settings: Compound concentration 100.0 nM
[10] = biological target: RAF proto-oncogene serine/threonine-protein kinase (Homo sapiens) (UniProt P04049); settings: Compound concentration 100.0 nM
[11] = biological target: Angiopoietin-1 receptor (Homo sapiens) (UniProt Q02763); settings: Compound concentration 100.0 nM
[12] = biological target: 5-hydroxytryptamine receptor 2A (Homo sapiens) (UniProt P28223); settings: Compound concentration 10.0 uM
[13] = biological target: Ephrin type-B receptor 1 (Homo sapiens) (UniProt P54762); settings: Compound concentration 100.0 nM
[14] = biological target: MAP kinase-interacting serine/threonine-protein kinase 1 (Homo sapiens) (UniProt Q9BUB5); settings: Compound concentration 100.0 nM
[15] = biological target: G protein-coupled receptor kinase 4 (Homo sapiens) (UniProt P32298); settings: Compound concentration 100.0 nM
[16] = biological target: Phosphatidylinositol 5-phosphate 4-kinase type-2 gamma (Homo sapiens) (UniProt Q8TBX8); settings: Compound concentration 100.0 nM
[17] = biological target: Mitogen-activated protein kinase kinase kinase 20 (Homo sapiens, UniProt Q9NYL2); settings: Compound concentration 100.0 nM
[18] = biological target: Sigma intracellular receptor 2 (Homo sapiens, UniProt Q5BJF2); settings: Compound concentration 10.0 uM
[19] = biological target: Calcium-dependent protein kinase 1 (Plasmodium falciparum) (UniProt P62344); settings: Compound concentration 100.0 nM
[20] = biological target: Interferon-induced, double-stranded RNA-activated protein kinase (Homo sapiens) (UniProt P19525); settings: Compound concentration 100.0 nM
[21] = biological target: Proto-oncogene tyrosine-protein kinase Src (Homo sapiens) (UniProt P12931); settings: Compound concentration 100.0 nM
[22] = biological target: Mast/stem cell growth factor receptor Kit (Homo sapiens) (UniProt P10721); settings: Compound concentration 100.0 nM
Sequence of Mast/stem cell growth factor receptor Kit (Homo sapiens) (P10721 whole entry): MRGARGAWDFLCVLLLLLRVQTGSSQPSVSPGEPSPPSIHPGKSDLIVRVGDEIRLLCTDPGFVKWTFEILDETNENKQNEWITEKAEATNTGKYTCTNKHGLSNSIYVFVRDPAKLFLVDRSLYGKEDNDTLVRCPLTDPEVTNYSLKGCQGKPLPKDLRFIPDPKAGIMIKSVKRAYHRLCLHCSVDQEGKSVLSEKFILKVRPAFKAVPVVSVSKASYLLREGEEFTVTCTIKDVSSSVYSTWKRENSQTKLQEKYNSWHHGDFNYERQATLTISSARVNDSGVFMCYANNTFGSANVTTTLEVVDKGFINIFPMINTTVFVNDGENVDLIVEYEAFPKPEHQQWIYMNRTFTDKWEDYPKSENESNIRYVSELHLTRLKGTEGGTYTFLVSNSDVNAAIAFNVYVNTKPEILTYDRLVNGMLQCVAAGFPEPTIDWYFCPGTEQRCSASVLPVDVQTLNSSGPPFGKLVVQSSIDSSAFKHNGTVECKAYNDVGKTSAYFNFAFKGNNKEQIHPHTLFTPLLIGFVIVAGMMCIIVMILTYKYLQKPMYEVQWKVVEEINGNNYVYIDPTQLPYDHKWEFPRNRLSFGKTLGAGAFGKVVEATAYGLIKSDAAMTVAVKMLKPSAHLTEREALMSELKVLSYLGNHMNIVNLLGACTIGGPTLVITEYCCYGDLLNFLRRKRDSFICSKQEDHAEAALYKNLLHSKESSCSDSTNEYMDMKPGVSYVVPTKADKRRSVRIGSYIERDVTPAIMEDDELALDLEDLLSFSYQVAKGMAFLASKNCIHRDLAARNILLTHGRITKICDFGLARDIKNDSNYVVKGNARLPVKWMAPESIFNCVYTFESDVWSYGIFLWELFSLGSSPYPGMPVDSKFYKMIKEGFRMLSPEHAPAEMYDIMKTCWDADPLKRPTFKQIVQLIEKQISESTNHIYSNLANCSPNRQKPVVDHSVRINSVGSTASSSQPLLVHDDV

[23] = biological target: Tyrosine-protein kinase CSK (Homo sapiens) (UniProt P41240); settings: Compound concentration 100.0 nM
[24] = biological target: Serine/threonine-protein kinase MRCK alpha (Homo sapiens) (UniProt Q5VT25); settings: Compound concentration 100.0 nM
[25] = biological target: Ephrin type-B receptor 2 (Homo sapiens) (UniProt P29323); settings: Compound concentration 100.0 nM
[26] = biological target: Ribosomal protein S6 kinase beta-1 (Homo sapiens) (UniProt P23443); settings: Compound concentration 100.0 nM
[27] = biological target: Focal adhesion kinase 1 (Homo sapiens) (UniProt Q05397); settings: Compound concentration 100.0 nM
[28] = biological target: Tyrosine-protein kinase Fes/Fps (Homo sapiens) (UniProt P07332); settings: Compound concentration 100.0 nM
[29] = biological target: Dual specificity tyrosine-phosphorylation-regulated kinase 2 (Homo sapiens) (UniProt Q92630); settings: Compound concentration 100.0 nM
[30] = biological target: Inhibitor of nuclear factor kappa-B kinase subunit epsilon (Homo sapiens) (UniProt Q14164); settings: Compound concentration 100.0 nM
[31] = biological target: Eukaryotic translation initiation factor 2-alpha kinase 1 (Homo sapiens) (UniProt Q9BQI3); settings: Compound concentration 100.0 nM
[32] = biological target: TGF-beta receptor type-1 (Homo sapiens) (UniProt P36897); settings: Compound concentration 100.0 nM
[33] = biological target: Transient receptor potential cation channel subfamily M member 6 (Homo sapiens) (UniProt Q9BX84); settings: Compound concentration 100.0 nM
Sequence of Transient receptor potential cation channel subfamily M member 6 (Homo sapiens) (Q9BX84 whole entry): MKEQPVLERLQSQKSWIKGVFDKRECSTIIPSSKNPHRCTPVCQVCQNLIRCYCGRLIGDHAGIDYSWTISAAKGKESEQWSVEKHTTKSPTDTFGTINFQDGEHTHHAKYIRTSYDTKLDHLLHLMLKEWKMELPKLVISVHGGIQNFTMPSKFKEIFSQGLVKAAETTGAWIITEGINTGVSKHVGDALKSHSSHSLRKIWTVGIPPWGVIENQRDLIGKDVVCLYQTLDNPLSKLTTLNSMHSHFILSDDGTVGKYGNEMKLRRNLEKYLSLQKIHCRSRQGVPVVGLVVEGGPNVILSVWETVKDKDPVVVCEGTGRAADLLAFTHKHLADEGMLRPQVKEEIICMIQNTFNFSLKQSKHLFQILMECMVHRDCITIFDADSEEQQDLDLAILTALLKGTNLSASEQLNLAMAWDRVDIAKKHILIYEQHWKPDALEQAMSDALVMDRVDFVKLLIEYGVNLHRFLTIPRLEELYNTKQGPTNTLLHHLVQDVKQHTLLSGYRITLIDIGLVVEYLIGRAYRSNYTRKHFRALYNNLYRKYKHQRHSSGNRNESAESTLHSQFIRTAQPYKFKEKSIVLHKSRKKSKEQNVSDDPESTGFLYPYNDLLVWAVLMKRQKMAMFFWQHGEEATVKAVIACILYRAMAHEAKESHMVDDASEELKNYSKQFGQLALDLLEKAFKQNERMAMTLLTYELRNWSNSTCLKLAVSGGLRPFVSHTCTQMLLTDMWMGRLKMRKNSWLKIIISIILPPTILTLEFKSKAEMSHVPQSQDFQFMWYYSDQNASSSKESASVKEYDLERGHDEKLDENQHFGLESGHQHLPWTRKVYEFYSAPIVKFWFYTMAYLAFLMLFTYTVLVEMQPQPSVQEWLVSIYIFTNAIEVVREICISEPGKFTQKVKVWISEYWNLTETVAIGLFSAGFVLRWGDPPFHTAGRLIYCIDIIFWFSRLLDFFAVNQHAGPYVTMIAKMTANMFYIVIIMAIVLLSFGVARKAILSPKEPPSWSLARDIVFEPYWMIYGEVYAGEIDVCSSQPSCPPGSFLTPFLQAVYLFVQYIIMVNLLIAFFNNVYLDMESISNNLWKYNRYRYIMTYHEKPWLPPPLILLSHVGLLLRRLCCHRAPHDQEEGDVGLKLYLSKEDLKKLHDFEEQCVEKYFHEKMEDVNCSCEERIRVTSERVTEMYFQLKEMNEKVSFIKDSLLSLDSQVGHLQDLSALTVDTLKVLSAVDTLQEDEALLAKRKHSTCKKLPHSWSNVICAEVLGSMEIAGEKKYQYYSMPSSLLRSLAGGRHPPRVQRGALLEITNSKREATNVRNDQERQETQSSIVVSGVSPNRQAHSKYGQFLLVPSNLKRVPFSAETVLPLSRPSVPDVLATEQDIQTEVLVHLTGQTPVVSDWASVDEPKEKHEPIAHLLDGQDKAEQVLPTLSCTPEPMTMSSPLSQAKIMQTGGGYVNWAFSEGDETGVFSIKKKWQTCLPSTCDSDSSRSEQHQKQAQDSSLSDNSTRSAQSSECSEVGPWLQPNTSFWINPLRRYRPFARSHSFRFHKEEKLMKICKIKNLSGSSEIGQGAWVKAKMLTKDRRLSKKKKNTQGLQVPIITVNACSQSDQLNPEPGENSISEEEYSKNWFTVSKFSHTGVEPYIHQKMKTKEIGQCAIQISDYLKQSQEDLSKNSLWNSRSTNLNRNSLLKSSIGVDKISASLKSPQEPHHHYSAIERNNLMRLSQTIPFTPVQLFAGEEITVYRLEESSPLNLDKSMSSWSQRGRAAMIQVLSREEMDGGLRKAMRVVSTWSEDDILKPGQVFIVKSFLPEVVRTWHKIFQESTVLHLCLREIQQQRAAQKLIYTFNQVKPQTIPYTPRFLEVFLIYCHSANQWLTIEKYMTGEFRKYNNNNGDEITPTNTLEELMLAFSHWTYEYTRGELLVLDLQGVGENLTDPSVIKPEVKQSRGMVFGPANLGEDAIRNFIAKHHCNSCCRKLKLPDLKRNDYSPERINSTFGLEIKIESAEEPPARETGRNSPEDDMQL

[34] = biological target: D(2) dopamine receptor (Homo sapiens) (UniProt P14416); settings: Compound concentration 10.0 uM
[35] = biological target: Calcium/calmodulin-dependent protein kinase type II subunit gamma (Homo sapiens) (UniProt Q13555); settings: Compound concentration 100.0 nM
[36] = biological target: Megakaryocyte-associated tyrosine-protein kinase (Homo sapiens) (UniProt P42679); settings: Compound concentration 100.0 nM
[37] = biological target: cGMP-dependent protein kinase 2 (Homo sapiens) (UniProt Q13237); settings: Compound concentration 100.0 nM
[38] = biological target: Activin receptor type-2B (Homo sapiens) (UniProt Q13705); settings: Compound concentration 100.0 nM
[39] = biological target: Mitogen-activated protein kinase kinase kinase kinase 1 (Homo sapiens) (UniProt Q92918); settings: Compound concentration 100.0 nM
[40] = biological target: Mitogen-activated protein kinase kinase kinase 14 (Homo sapiens) (UniProt Q99558); settings: Compound concentration 100.0 nM
[41] = biological target: 1-phosphatidylinositol 3-phosphate 5-kinase (Homo sapiens) (UniProt Q9Y2I7); settings: Compound concentration 100.0 nM
Sequence of 1-phosphatidylinositol 3-phosphate 5-kinase (Homo sapiens) (Q9Y2I7 whole entry): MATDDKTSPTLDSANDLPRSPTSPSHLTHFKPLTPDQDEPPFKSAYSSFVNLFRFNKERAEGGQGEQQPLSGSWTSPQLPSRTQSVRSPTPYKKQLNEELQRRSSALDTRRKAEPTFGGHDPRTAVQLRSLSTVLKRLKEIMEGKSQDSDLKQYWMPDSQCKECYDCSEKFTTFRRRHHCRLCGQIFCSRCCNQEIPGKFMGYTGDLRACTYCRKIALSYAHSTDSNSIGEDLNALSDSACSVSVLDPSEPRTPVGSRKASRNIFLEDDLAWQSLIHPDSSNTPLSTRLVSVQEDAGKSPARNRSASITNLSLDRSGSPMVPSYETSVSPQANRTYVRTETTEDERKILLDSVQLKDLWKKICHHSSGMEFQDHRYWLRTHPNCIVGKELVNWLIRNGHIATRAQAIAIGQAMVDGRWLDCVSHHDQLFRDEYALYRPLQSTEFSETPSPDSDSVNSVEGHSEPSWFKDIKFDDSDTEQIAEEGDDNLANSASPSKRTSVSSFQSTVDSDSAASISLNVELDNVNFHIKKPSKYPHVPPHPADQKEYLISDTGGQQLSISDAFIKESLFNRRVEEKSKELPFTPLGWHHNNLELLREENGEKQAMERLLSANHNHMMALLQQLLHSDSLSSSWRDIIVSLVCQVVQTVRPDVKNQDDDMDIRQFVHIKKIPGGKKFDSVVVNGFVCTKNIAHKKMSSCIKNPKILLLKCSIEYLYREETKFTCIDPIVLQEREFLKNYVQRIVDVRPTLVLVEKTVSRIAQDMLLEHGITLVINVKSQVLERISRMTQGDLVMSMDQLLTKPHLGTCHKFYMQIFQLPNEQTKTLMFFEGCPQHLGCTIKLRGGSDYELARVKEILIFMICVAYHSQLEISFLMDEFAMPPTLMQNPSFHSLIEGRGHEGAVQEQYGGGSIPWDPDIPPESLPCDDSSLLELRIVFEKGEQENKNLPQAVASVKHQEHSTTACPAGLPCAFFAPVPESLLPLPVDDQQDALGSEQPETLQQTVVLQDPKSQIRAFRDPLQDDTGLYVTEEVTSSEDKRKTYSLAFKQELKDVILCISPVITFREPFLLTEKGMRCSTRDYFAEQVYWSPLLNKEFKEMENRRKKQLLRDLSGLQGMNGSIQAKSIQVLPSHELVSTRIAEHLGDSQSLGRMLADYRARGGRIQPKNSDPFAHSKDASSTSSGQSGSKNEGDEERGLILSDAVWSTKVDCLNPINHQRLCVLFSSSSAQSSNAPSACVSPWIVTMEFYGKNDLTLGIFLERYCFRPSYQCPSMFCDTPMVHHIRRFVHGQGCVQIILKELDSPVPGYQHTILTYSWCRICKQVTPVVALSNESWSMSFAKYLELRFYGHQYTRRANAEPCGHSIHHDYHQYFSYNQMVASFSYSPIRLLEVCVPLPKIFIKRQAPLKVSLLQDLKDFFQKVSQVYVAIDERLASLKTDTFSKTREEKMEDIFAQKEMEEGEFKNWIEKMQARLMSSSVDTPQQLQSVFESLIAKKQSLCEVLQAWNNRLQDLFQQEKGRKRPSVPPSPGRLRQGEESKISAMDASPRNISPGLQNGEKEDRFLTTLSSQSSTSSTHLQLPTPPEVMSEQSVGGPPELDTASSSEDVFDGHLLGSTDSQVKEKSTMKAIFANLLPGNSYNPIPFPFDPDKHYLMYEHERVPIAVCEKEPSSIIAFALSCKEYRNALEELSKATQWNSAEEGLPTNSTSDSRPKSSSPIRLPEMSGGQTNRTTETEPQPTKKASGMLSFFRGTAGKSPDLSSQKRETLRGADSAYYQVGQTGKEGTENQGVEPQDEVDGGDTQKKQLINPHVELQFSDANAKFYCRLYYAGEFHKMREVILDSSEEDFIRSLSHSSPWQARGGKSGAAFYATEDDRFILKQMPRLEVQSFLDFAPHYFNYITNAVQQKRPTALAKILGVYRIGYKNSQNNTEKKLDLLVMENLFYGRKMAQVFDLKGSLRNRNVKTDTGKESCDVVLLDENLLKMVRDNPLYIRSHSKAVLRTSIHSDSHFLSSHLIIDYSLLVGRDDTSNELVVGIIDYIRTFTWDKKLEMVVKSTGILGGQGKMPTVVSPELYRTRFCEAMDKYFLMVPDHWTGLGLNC

[42] = biological target: Cyclin-G-associated kinase (Homo sapiens) (UniProt O14976); settings: Compound concentration 100.0 nM
[43] = biological target: Calcium/calmodulin-dependent protein kinase type 1D (Homo sapiens) (UniProt Q8IU85); settings: Compound concentration 100.0 nM
[44] = biological target: D(3) dopamine receptor (Homo sapiens) (UniProt P35462); settings: Compound concentration 10.0 uM
[45] = biological target: Ephrin type-A receptor 5 (Homo sapiens) (UniProt P54756); settings: Compound concentration 100.0 nM

SMILES: Nc1c(C(=O)NCc2ccc(C(=O)NCCCC3CCCCC3)cc2)cnn1-c1ccccc1 [SR-318]
- residual activity [1]: 100%
- residual activity [2]: 100%
- inhibition [3]: 38.6%
- residual activity [4]: 95%
- residual activity [5]: 100%
- residual activity [6]: 100%
- residual activity [7]: 92%
- residual activity [8]: 100%
- residual activity [9]: 96%
- residual activity [10]: 100%
- residual activity [11]: 100%
- inhibition [12]: 23.7%
- residual activity [13]: 100%
- residual activity [14]: 82%
- residual activity [15]: 100%
- residual activity [16]: 100%
- residual activity [17]: 42%
- inhibition [18]: 45.3%
- residual activity [19]: 86%
- residual activity [20]: 54%
- residual activity [21]: 100%
- residual activity [22]: 70%
- residual activity [23]: 100%
- residual activity [24]: 100%
- residual activity [25]: 100%
- residual activity [26]: 100%
- residual activity [27]: 99%
- residual activity [28]: 100%
- residual activity [29]: 97%
- residual activity [30]: 100%
- residual activity [31]: 100%
- residual activity [32]: 100%
- residual activity [33]: 100%
- inhibition [34]: 15%
- residual activity [35]: 100%
- residual activity [36]: 100%
- residual activity [37]: 96%
- residual activity [38]: 100%
- residual activity [39]: 99%
- residual activity [40]: 100%
- residual activity [41]: 100%
- residual activity [42]: 100%
- residual activity [43]: 93%
- inhibition [44]: 21.2%
- residual activity [45]: 100%

SMILES: O=C(NCCCC1CCCCC1)c1ccc(CNC(=O)c2cnn(-c3ccccc3)c2C(F)(F)F)cc1 [SR-321]
- residual activity [1]: 100%
- residual activity [2]: 100%
- inhibition [3]: 80.2%
- residual activity [4]: 88%
- residual activity [5]: 91%
- residual activity [6]: 100%
- residual activity [7]: 100%
- residual activity [8]: 100%
- residual activity [9]: 100%
- residual activity [10]: 99%
- residual activity [11]: 100%
- inhibition [12]: 8.57%
- residual activity [13]: 89%
- residual activity [14]: 98%
- residual activity [15]: 100%
- residual activity [16]: 99%
- residual activity [17]: 100%
- inhibition [18]: 54.8%
- residual activity [19]: 100%
- residual activity [20]: 64%
- residual activity [21]: 100%
- residual activity [22]: 100%
- residual activity [23]: 100%
- residual activity [24]: 100%
- residual activity [25]: 100%
- residual activity [26]: 96%
- residual activity [27]: 100%
- residual activity [28]: 100%
- residual activity [29]: 100%
- residual activity [30]: 78%
- residual activity [31]: 95%
- residual activity [32]: 89%
- residual activity [33]: 94%
- inhibition [34]: 15.8%
- residual activity [35]: 100%
- residual activity [36]: 100%
- residual activity [37]: 89%
- residual activity [38]: 96%
- residual activity [39]: 100%
- residual activity [40]: 90%
- residual activity [41]: 65%
- residual activity [42]: 100%
- residual activity [43]: 100%
- inhibition [44]: 2.65%
- residual activity [45]: 92%
